# Source: publication PMC7851395 (British Journal of Cancer, 2020)
# Key:
# H460 and PC-9 cells = assay: Cell proliferation in cells transfected with CDK9 siRNA or control siRNA; format: cell-based, human
# Procedure: (§1) The cytotoxicity and viability of human NSCLC cells and normal cells were determined by MTT assay. MTT assay was performed as described previously.[22] MTT assay was used to determine the cell cytotoxicity and viability in human NSCLC cells. Cells (5 × 10^3 cells/well) were plated in 96-well plates and attached overnight. After the proper treatment, the MTT solution was added at 25 µL/well and incubated at 37 °C for 4 h. The formazan crystals were dissolved in 150 µL of DMSO, and the optical density (OD) was measured using a Microplate Reader at 490 nm. The cell viability was calculated by the following formula: viability = (average OD values of treatment wells/average OD values of vehicle control wells) × 100%. And half-maximal inhibitory concentration (IC50) values were determined by GraphPad Pro Prism 7.0.
# The siRNA targeting human CDK9 was purchased from Genepharma (Shanghai, China) with the following sequence: siCDK9-1: 5′-[…] TT-3′, siCDK9-2: 5′-[…]-3′, siCDK9-3: 5′-[…]-3′. Cells were transfected with 50 nM siRNA using Lipofectamine 3000 (Invitrogen, CA, USA) for 48 h.
# [1] = test system: human umbilical vein endothelial cell HUVEC; assay: MTT cytotoxicity assay, normal HUVEC cells; format: cell-based
# Procedure: as §1
# NIH mice = assay: Acute toxicity test; format: in vivo
# Procedure: In the acute toxicity test, 30 NIH mice (female, 8 weeks old) were randomly divided into three groups (n = 10), including vehicle group, bufalin group (30 mg/kg) and acetyl-bufalin group (30 mg/kg). The three groups received intraperitoneal injection only on the first day. All the mice were housed under 12 h light–dark cycles at 25 °C and free for water and diet. […] All the mice were sacrificed by cervical dislocation.
# H460 cells = assay: MTT cytotoxicity assay, H460 cells; format: cell-based; conditions: Homo sapiens, NCI-H460; H460 cells, 48 h, MTT; read-out: IC50
# Procedure: as §1
# [2] = test system: patient-derived human NSCLC xenografts; assay: Patient-derived NSCLC xenograft (PDX) model; format: in vivo, mice; conditions: for average tumour volume: 14 days, vehicle 931.90 mm^3
# Procedure: For the patient-derived human NSCLC xenografts (PDXs) animal model, four pairs of lung cancer samples were obtained from patients who had undergone surgical treatment of lung cancer in the First Affiliated Hospital of Wenzhou Medical University. Fresh tumour tissue was sterilely incised into ~3-mm^3 pieces and subcutaneously injected into immunodeficient NOD/SCID mice within 30 min. The remaining tumour tissues were stored at −80 °C. When the tumours have successfully engrafted, tumour samples were removed and passaged into the third generation of nude mice for the following studies. All 18 mice were allocated into three groups (n = 6) and received i.p. injection of acetyl-bufalin (1 mg/kg/2 days and 2 mg/kg/2 days) as compared with mice injected with PBS (vehicle group) every other day. Tumour volume was measured as V = (L × W × W)/2, in which L and W represent the length and width of tumour. After 14 days, all the mice were killed by cervical dislocation. The tumours, hearts, livers, kidneys and lungs were removed for use in the histology and western blot analysis.
# H460 xenograft = format: in vivo, BALB/c nude mice; conditions: 2 mg/kg i.p. every other day
# Procedure: All animal procedures were done accordingly with the Institutional laboratory animal research guidelines and were approved by Wenzhou Medical University Animal Policy and Welfare Committee. Female athymic BALB/c nude mice (5–6 weeks old) and immune-defective non-obese […] diabetic severe combined immunodeficiency (NOD-SCID) mice (6–8 weeks old) were purchased from the Vital River Experimental Animal Center (Beijing, China). All the mice were housed under 12 h light–dark cycles at 25 °C and free for water and diet. For the xenograft model, the H460 cells (5 × 10^6 cells were mixed with an equal volume of PBS and Matrigel in 100 μL) were implanted on the hind flank of nude mice. Once tumour volumes reached ~50 mm^3, 24 mice were divided into four experimental groups (six mice per group, no differences in mean body weights or tumour volumes between the groups) and intraperitoneal injection with 2 mg/kg SNS-032 (a recognised CDK9 inhibitor), bufalin and acetyl-bufalin every other day. Tumour volume was measured as V = (L × W × W)/2, in which L and W represent the length and width of tumour. Animals were killed by cervical dislocation once the tumour volume reached 1000 mm^3. The tumours, hearts, livers, kidneys and lungs were removed for use in the histology and western blot analysis.
# caspase-3 = assay: Caspase-3 activity assay; format: cell-based; conditions: human NSCLC cells (H460, PC-9), 24 h
# Procedure: The caspase-3 assay was performed as described previously.[23] According to the manufacturer’s protocol, the activity of caspase‐3 was evaluated by using a caspase‐3 colorimetric assay kit (Abcam, Cambridge, UK). H460 and PC-9 cells were collected and resuspended in lysis buffer. After incubation on ice for 10 min, the cell lysate was centrifuged at 12,000 rpm for 10 min at 4 °C, and the protein concentration in the supernatants was measured using the Bradford dye method. The supernatants were incubated with a reaction buffer containing 200 µM devd-p-nitroanilide, for caspase‐3 in a caspase assay buffer at 37 °C with 10 mM dithiothreitol for 2 h. The activity of caspase-3 was determined by measuring the absorbance at 405 nm. Each experiment was done in triplicate for three independent experiments.
# human NSCLC cells = assay: Colony-formation assay; format: cell-based; conditions: 50, 100, 200 nM for 24 h, colonies after 7 days
# Procedure: The human NSCLC cells and normal cells were seeded at 1000 cells/well on six-well plates, placed in 5% CO2 atmosphere and cultured overnight at 37 °C. DMSO (Control) and acetyl-bufalin (50, 100, 200 nM) were added to the cells for 24 h. The fresh medium was replaced every 2 days to maintain the growth of cells for 7 days. Colonies were washed with phosphate-buffered saline (PBS), fixed with 4% paraformaldehyde at room temperature for 15 min, washed with purified water for three times and stained with Crystal violet for 10 min. Each experiment was in triplicate, and three independent experiments were carried out.
smiles,measurement,setting,value
CC(=O)OC1CCC2(C)C(CCC3C2CCC2(C)C(c4ccc(=O)oc4)CCC32O)C1 (stereo not drawn) [acetyl-bufalin],cell proliferation of siCDK9 cells,"H460 and PC-9 cells; H460 and PC-9 transfected with CDK9 siRNA1, 48 h",did not significantly affect
same,cell proliferation of control siRNA cells,"H460 and PC-9 cells; H460 and PC-9 transfected with control siRNA, 48 h",hampered cell proliferation
same,cytotoxic effect on normal cells,[1],low toxicity
same,weight of the remaining mice,"NIH mice; 30 mg/kg single i.p., 14 days, compared with vehicle",stable
same,mortality (mice died),"NIH mice; 30 mg/kg single intraperitoneal injection, observed 14 days, n = 10",2/10
same,IC50,H460 cells,27.8 nM
same,average tumour volume,[2]; 1 mg/kg per 2 days i.p.,544.43 mm^3
same,average tumour volume,[2]; 2 mg/kg per 2 days i.p.,256.29 mm^3
same,body weight of the mice,[2]; 1 and 2 mg/kg per 2 days i.p.,stable
same,"gross toxicities on heart, liver, kidney and lung","[2]; H&E staining, compared with vehicle",no gross toxicities
same,"gross toxicities on hearts, livers, kidneys or lungs",H460 xenograft; H&E staining,no gross toxicities
same,tumour growth (weight and volume),H460 xenograft; compared with vehicle,significantly inhibited tumour growth
same,comparison of inhibitory effect between treatments,H460 xenograft; versus SNS-032 and bufalin,best inhibitory effect
same,BAX expression and caspase-3 activity,caspase-3,dose-dependently increased
same,NSCLC cell cloning ability,human NSCLC cells,inhibited dose-dependently
